Measurements taken from patent US20250214942A1, “INHIBITORS OF RECEPTOR INTERACTING PROTEIN KINASE I FOR THE TREATMENT OF DISEASE” (Board of Regents, The University of Texas System, priority 2019, published 2025).

Legend:
[1] = biological target: RIPK1 (Homo sapiens (Human), UniProt Q13546); experiment: ADP-Glo kinase assay (RIPK1 activity, conversion of ATP to ADP); format: biochemical; settings: 5 nM RIPK1, 50 μM ATP, 6 h reaction; read-out: RIPK1 Enzyme Avg IC50
Procedure, shortened: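 ADP-Glo luminescence of ATP-to-ADP conversion by 5 nM RIPK1 with 50 μM ATP (final), 6 h reaction after 10 min compound preincubation at rt. Buffer was 50 mM HEPES pH 7.5, 30 mM MgCl2, 0.05% BSA, 0.02% CHAPS. IC50 from four-parameter logistic fit.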

[2] = system: human monocytic cell line U937; experiment: Human U937 cellular necroptosis assay (TNFalpha + z-VAD-FMK, Cell Titer-Glo viability); format: cell-based; settings: Homo sapiens, U-937, 22 h, U937 cells, 25 ng/mL human TNFalpha + 25 μM z-VAD-FMK, read-out: hU937 Avg IC50
Procedure, shortened: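 Cells resuspended in phenol red-free RPMI with 10% FBS, stimulated with 25 ng/mL human TNFalpha plus 25 μM z-VAD-FMK, then given serially diluted compound for 22 h at 37° C, 5% CO2. Viability by Cell Titer-Glo 2.0 luminescence; IC50 from four-parameter logistic fit, averaged across runs.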

Chain of RIPK1 (Q13546 1-327): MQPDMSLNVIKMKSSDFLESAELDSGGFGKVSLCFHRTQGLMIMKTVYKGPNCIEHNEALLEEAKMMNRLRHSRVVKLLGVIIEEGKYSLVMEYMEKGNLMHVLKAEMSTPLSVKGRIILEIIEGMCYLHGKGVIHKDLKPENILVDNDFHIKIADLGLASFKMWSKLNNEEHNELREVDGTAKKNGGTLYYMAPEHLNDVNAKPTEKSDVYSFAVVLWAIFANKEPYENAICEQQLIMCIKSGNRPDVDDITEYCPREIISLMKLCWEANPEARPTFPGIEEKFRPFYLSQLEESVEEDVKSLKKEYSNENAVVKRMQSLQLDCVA

O=C(N1N=CCC1c1cc(F)cc(F)c1)C12CC(Cn3ncc4nccnc43)(C1)C2 (stereo not drawn) [Example 135, (3-((1H-pyrazolo[3,4-b]-pyrazin-1-yl)methyl)-bicyclo[1.1.1]pentan-1-yl)(5-(3,5-difluorophenyl)-4,5-dihydro-1H-pyrazol-1-yl)methanone]
IC50 [1]: 18 nM | IC50 [2]: 53 nM

O=C(N1N=CCC1c1cc(F)cc(F)c1)C12CC(Cn3c(=O)[nH]c4ccccc43)(C1)C2 (stereo not drawn) [Example 109, 1-((3-(5-(3,5-difluorophenyl)-4.5-dihydro-1H-pyrazole-1-carbonyl)bicyclo[1.1.1]-pentan-1-yl)methyl)-1,3-dihydro-2H-benzo[d]-imidazol-2-one]
IC50 [1]: 42 nM | IC50 [2]: 470 nM

O=C(N1CC(F)CC1c1cccc(F)c1)C12CC(C(F)c3ccccc3)(C1)C2 (stereo not drawn) [Example 41, (3-(Fluoro(phenyl)methyl)bicyclo[1.1.1]pentan-1-yl)-(4-fluoro-2-(3-fluorophenyl)pyrrolidin-1-yl)methanone]
IC50 [1]: 31 nM | IC50 [2]: 272 nM

N#Cc1cn(CC23CC(C(=O)N4N=CCC4c4cc(F)cc(F)c4)(C2)C3)nn1 (stereo not drawn) [Example 163, 1-((3-(5-(3,5-difluorophenyl)-4,5-dihydro-1H-pyrazole-1-carbonyl)bicyclo[1.1.1]-pentan-1-yl)methyl)-1H-1,2,3-triazole-4-carbonitrile]
IC50 [1]: 114 nM | IC50 [2]: 730 nM

N#Cc1cc(OCC23CC(C(=O)N4CC(F)CC4c4cccc(F)c4)(C2)C3)ncn1 (stereo not drawn) [Example 92, 6-((3-(4-fluoro-2-(3-fluorophenyl)pyrrolidine-1-carbonyl)bicyclo[1.1.1]-pentan-1-yl)methoxy)-pyrimidine-4-carbonitrile]
IC50 [1]: 56 nM | IC50 [2]: 518 nM

O=C(N1N=CCC1c1cc(F)cc(F)c1)C12CC(COc3cc(Cl)ncn3)(C1)C2 (stereo not drawn) [Example 7, (3-(((6-Chloropyrimidin-4-yl)oxy)methyl)bicyclo[1.1.1]pentan-1-yl)(5-(3,5-difluorophenyl)-4,5-dihydro-1H-pyrazol-1-yl)methanone]
IC50 [1]: 21 nM | IC50 [2]: 18 nM

O=C(N1N=CCC1c1cc(F)cc(F)c1)C12CC(Cn3ccc4cncnc43)(C1)C2 (stereo not drawn) [Example 136, (3-((7H-pyrrolo[2,3-d]-pyrimidin-7-yl)methyl)-bicyclo[1.1.1]pentan-1-yl)(5-(3,5-difluorophenyl)-4,5-dihydro-1H-pyrazol-1-yl)-methanone]
IC50 [1]: 20 nM | IC50 [2]: 58 nM

N#Cc1ccc2c(cnn2CC23CC(C(=O)N4CCC4c4ccccc4)(C2)C3)c1 (stereo not drawn) [Example 177, 1-((3-(2-phenylazetidine-1-carbonyl)bicyclo[1.1.1]-pentan-1-yl)methyl)-1H-indazole-5-carbonitrile]
IC50 [1]: 54 nM | IC50 [2]: 536 nM

N#CC1CCN(CC23CC(C(=O)N4N=CCC4c4cc(F)cc(F)c4)(C2)C3)C1 (stereo not drawn) [Example 155, 1-((3-(5-(3,5-difluorophenyl)-4,5-dihydro-1H-pyrazole-1-carbonyl)bicyclo[1.1.1]-pentan-1-yl)methyl)-pyrrolidine-3-carbonitrile]
IC50 [1]: 814 nM | IC50 [2]: 5290 nM

Cc1cnc(C2CC=NN2C(=O)C23CC(Cn4ncc5ncccc54)(C2)C3)cn1 (stereo not drawn) [Example 151, (3-((1H-pyrazolo[4,3-b]-pyridin-1-yl)methyl)bicyclo-[1.1.1]pentan-1-yl)(5-(5-methylpyrazin-2-yl)-4,5-dihydro-1H-pyrazol-1-yl)methanone]
IC50 [1]: 242 nM | IC50 [2]: 1190 nM

O=C(N1CC(F)CC1c1cccc(F)c1)C12CC(Cn3ncc4c(F)cccc43)(C1)C2 (stereo not drawn) [Example 83, (3-((4-fluoro-1H-indazol-1-yl)methyl)bicyclo[1.1.1]-pentan-1-yl)(4-fluoro-2-(3-fluorophenyl)pyrrolidin-1-yl)methanone]
IC50 [1]: 16 nM | IC50 [2]: 67 nM

N#Cc1cccc2nn(CC34CC(C(=O)N5N=CCC5c5cc(F)cc(F)c5)(C3)C4)cc12 (stereo not drawn) [Example 60, 2-((3-(5-(3,5-difluorophenyl)-4,5-dihydro-1H-pyrazole-1-carbonyl)bicyclo[1.1.1]-pentan-1-yl)methyl)-2H-indazole-4-carbonitrile]
IC50 [1]: 44 nM | IC50 [2]: 178 nM
